# Results reported in publication PMC12257535, “Distinct Interactions of Cannabinol and Its Cytochrome P450-Generated Metabolites with Receptors and Sensory Neurons” (Journal of Medicinal Chemistry, 2025).
# B1: CYP2C9 (Homo sapiens) (protein)
# chain: MDSLVVLVLCLSCLLLLSLWRQSSGRGKLPPGPTPLPVIGNILQIGIKDISKSLTNLSKVYGPVFTLYFGLKPIVVLHGYEAVKEALIDLGEEFSGRGIFPLAERANRGFGIVFSNGKKWKEIRRFSLMTLRNFGMGKRSIEDRVQEEARCLVEELRKTKASPCDPTFILGCAPCNVICSIIFHKRFDYKDQQFLNLMEKLNENIKILSSPWIQICNNFSPIIDYFPGTHNKLLKNVAFMKSYILEKVKEHQESMDMNNPQDFIDCFLMKMEKEKHNQPSEFTIESLENTAVDLFGAGTETTSTTLRYALLLLLKHPEVTAKVQEEIERVIGRNRSPCMQDRSHMPYTDAVVHEVQRYIDLLPTSLPHAVTCDIKFRNYLIPKGTTILISLTSVLHDNKEFPNPEMFDPHHFLDEGGNFKKSKYFMPFSAGKRICVGEALAGMELFLFLTSILQNFNLKSLVDPKNLDTTPVVNGFASVPPFYQLCFIPV
# Tests used:
# [1] = target: CYP3A4 (Homo sapiens, UniProt P08684, S18F); test: NADPH oxidation assay with CYP3A4 nanodisc and CPR; conditions: triplicate
# CYP3A4, sequence (P08684 with tags, fused parts or gaps S18F limits assumed): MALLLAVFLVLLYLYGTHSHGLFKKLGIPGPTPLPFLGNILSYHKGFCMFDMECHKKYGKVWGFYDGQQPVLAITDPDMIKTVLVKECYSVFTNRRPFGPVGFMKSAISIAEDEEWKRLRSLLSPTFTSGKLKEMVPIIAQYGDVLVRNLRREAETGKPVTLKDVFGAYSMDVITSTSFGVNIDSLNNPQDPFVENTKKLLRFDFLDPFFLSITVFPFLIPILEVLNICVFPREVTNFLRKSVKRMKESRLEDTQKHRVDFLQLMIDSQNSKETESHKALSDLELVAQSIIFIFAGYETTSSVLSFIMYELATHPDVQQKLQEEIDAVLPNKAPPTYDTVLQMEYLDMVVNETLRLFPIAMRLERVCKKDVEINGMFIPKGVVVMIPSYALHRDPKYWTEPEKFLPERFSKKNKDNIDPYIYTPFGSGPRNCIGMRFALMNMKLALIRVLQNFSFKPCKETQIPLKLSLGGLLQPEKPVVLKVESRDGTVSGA
# [2] = In vivo metabolism of CBN in female mice, plasma levels by targeted LC/MS/MS; set-up: species or system C57BL/6 mice; conditions: for CBN-11-OH formation relative to CBN-1′-OH / CBN-11-OH formation relative to CBN-quinone: 0.5 h, plasma
# Experimental: Initially dissolved in ethanol, CBN was combined with a volume of Tween 80, constituting 6% of the total solution volume for injection. Ethanol was eliminated via vacuum evaporation, and saline was added to prepare a 4 mg/mL solution. CBN (20 mg/kg) or vehicle was administered to C57BL/6 mice intravenously (IV) through the retro-orbital sinus or intraperitoneally (IP) at the lower right quadrant of the abdomen. Animals were euthanized at 30- or 120 min postinjection. Blood samples, collected via cardiac puncture into heparin tubes, underwent cold centrifugation at 4500 rpm for 15 min to isolate plasma. Plasma and whole liver samples were flash-frozen at −80 °C for subsequent analysis. Our decision to use female mice for this experiment was based on the availability of age-matched mice in the colony at the time of the experiment.
# Mice were anaesthetized with a 3% inhalant dose of isoflurane until their respiratory rate decreased to 50% of baseline (i.e., 40–60 breaths/min) and the righting reflex was abolished. Mice were subsequently removed from the induction chamber and laid on their side. Using the index finger and thumb of the nondominant hand, the skin above and below the eye was retracted until a slight protrusion from the socket was noted. A 29G1/2 needle was inserted, bevel down, into the medial canthus at an approximate 45-degree angle until slight resistance was noted. Volume was slowly infused at a rate of 15uL/second. The needle was subsequently removed from the eye socket, and ophthalmic ointment was added.
# Animals were gently restrained by scruff, and the injection site at the lower right quadrant of the abdomen was identified. The needle was inserted at a 60-degree angle to the body, and the plunger was lightly withdrawn to ensure the needle was not in contact with viscera or organs before dispensing volume.
# 200 μL plasma samples were collected and used for extraction using 1 mL of Hexane: Ethyl acetate (8:2 v/v) following a similar protocol described above.
# Samples were analyzed using the Sciex QTrap 6500+ system (Framingham, MA) with Waters Acquity I- class plus UPLC. Software Analyst 1.7.1 was used for data acquisition.
# The LC separation was performed on a Waters Acquity UPLC BEH column (2.1 × 100 mm, 1.7 μm) with mobile phase A (0.1% formic acid in water) and mobile phase B (0.1% formic acid in acetonitrile). The flow rate was 0.5 mL/min unless noted otherwise. The linear gradient was as follows: 0–0.5 min, 70%A; 2 min, 20%A; 4–4.2 min, 0%A; 4.21–5.2 min, 0%A (0.8 mL/min); 5.3–6.9 min, 70%A. The autosampler was set at 10 °C, and the column was kept at 50 °C. The injection volume was 5 μL.
# Mass spectra were acquired under positive electrospray ionization (ESI) with the ion spray voltage of 4500 V. The source temperature was 500 °C. The curtain gas, ion source gas 1, and ion source gas 2 were 32, 50, and 70 psi, respectively. Multiple reaction monitoring (MRM) was used for quantitation with the MRM transition of CBN (m/z 311.2 → m/z 269.1), CBN-1′–OH (m/z 327.2 → m/z 253.1), CBN-11-OH (m/z 327.2 → m/z 128.1), CBN-p-quinone (m/z 325.2 → m/z 283.1) and EPEA-d4 as internal standard (m/z 350.3 → m/z 66.1).
# [3] = test system: human liver microsomes; test: CBN metabolism by human liver microsomes, metabolite formation rate; assay type: in vitro ADME; conditions: HLM, across different CBN concentrations
# Experimental: We carried out concentration-dependent metabolism of CBN in the presence of 2 CYPs: 2C9 and 2D6. For the experiment, we used an enzyme concentration of 0.5 μM, reconstituted in the lipid system of POPC: POPS (8:2 v/v), and CPR at 0.6 μM dissolved in 0.1 M potassium phosphate buffer for CYP2C9. The substrate CBN was used in a range of 5–80 μM. The reaction mixture was incubated at 37 °C for 10 min, and then NADPH was added (1 mM), allowing the reaction to proceed for an additional 30 min. We quenched the reactions using a mixture of Hexane: Ethyl Acetate (8:2 v/v) and used the same composition to extract the CBN metabolites. We did a total extraction for three cycles. Following the extractions, the extractions were dried under a continuous stream of nitrogen, and the residual products were finally dissolved in 90% ethanol. We used CYP2D6 in a nanodisc for the metabolism of CBN. […] We carried out the same protocol for the metabolism of CBN using 1 μg of human liver microsome, CPR (0.6 μM) and NADPH (1 mM).
# Samples were analyzed with the Sciex QTrap 6500+ system (Framingham, MA) with Waters Acquity I-class plus UPLC. Software Analyst 1.7.1 was used for data acquisition.
# The LC separation was performed on a Waters Acquity UPLC BEH column (2.1 × 100 mm, […]) with mobile phase A (0.1% formic acid in water) and mobile phase B (0.1% formic acid in acetonitrile). The flow rate was 0.5 mL/min unless noted otherwise. […]
# (§1) Mass spectra were acquired under positive electrospray ionization (ESI) with the ion spray voltage of 4500 V. The source temperature was 500 °C. […] Multiple reaction monitoring (MRM) was used for quantitation, as described in transitions CBN (m/z 311.2 → m/z 205.1), CBN-1′–OH (m/z 327.2 → m/z 253.1), CBN-11-OH (m/z 327.2 → m/z 291.1), CBN-p-quinone (m/z 325.2 → m/z 283.1) and CBC-d9 as internal standard (m/z 324.2→ m/z 202.1).
# (§2) All data were analyzed using the software Skyline (daily version 22.2.1.278). […]
# [4] = target: T1, CYP2D6 (Homo sapiens, UniProt P10635); test: CYP2D6 (nanodisc)-mediated CBN metabolism, kinetics of metabolite formation; assay type: in vitro ADME
# T1 construct: polyhistidine (inferred from Ni-NTA purification and histidine elution); made in house; host or cells: E. coli (inferred from the pCWori vector and lysozyme/spheroplast preparation)
# T1 sequence (P10635 with tags, fused parts or gaps limits assumed): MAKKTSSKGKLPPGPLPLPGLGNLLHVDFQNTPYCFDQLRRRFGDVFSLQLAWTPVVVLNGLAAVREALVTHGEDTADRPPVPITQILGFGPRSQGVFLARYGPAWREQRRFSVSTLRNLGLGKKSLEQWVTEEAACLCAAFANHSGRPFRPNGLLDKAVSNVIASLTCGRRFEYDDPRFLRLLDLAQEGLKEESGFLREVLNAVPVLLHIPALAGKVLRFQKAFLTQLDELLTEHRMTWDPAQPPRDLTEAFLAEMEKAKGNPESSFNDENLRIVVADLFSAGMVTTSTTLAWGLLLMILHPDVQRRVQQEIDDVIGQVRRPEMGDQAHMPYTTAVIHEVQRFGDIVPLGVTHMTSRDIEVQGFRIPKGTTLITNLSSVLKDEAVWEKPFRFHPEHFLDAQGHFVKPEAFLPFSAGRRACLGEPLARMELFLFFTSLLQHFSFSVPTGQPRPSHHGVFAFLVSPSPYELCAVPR
# Experimental: We carried out concentration-dependent metabolism of CBN in the presence of 2 CYPs: 2C9 and 2D6. For the experiment, we used an enzyme concentration of 0.5 μM, reconstituted in the lipid system of POPC: POPS (8:2 v/v), and CPR at 0.6 μM dissolved in 0.1 M potassium phosphate buffer for CYP2C9. The substrate CBN was used in a range of 5–80 μM. The reaction mixture was incubated at 37 °C for 10 min, and then NADPH was added (1 mM), allowing the reaction to proceed for an additional 30 min. We quenched the reactions using a mixture of Hexane: Ethyl Acetate (8:2 v/v) and used the same composition to extract the CBN metabolites. We did a total extraction for three cycles. […]
# Samples were analyzed with the Sciex QTrap 6500+ system (Framingham, MA) with Waters Acquity I-class plus UPLC. […]
# as §1, §2
# [5] = test system: NO; test: NO levels in LPS-stimulated BV2 microglial cells; assay type: cell-based; conditions: for change in NO levels compared to cells with only LPS treatment: LPS-stimulated BV2, 1, 2.5 and 5 μM
# Experimental: (§3) The BV2 microglial cells were subjected to the treatment of LPS both in the absence and presence of CBN and its selected metabolites. The seeding density for this assay was 1 × 10^5 cells/well. The cells were initially treated with the molecules for 4 h before being stimulated with LPS (25 ng/mL). The NO assay was performed 24 h after the treatment with LPS. The NO assay was performed according to the manufacturer’s protocol, and NO levels were quantified using nitrate standard curves. For the assay, 50 μL of cell media was used in a 96-well plate, and the absorbance was recorded at 540 nm. All measurements were performed in n = 5.
# [6] = test system: IL-6; test: IL-6 ELISA in LPS-stimulated BV2 microglial cells; assay type: cell-based
# Experimental: as §3
# (§4) ELISA assays of IL-6, IL-10 (Item No. 88–7105), and Arginase 1 were performed using the same supernatant with which we had completed the NO and LDH assays. The culture media was collected, and the IL-6 (Thermo Scientific) and Arginase 1 (abcam) assays were performed using the specific monoclonal antibodies as per the manufacturer’s instructions.
# [7] = test system: IL-10; test: IL-10 ELISA in LPS-stimulated BV2 microglial cells; assay type: cell-based; conditions: LPS-stimulated BV2, 1–5 μM
# Experimental: as §3, §4
# [8] = test system: Arginase 1; test: Arginase 1 ELISA in LPS-stimulated BV2 microglial cells; assay type: cell-based
# Experimental: as §3, §4
# [9] = target: T2, CB1 receptor (Homo sapiens, UniProt P21554); test: G protein nanoBRET assay, agonist mode, CB1 receptor; conditions: 10 μM, ΔBRET; confirmed by concentration–response, only at high concentrations
# T2 sequence (P21554 whole entry): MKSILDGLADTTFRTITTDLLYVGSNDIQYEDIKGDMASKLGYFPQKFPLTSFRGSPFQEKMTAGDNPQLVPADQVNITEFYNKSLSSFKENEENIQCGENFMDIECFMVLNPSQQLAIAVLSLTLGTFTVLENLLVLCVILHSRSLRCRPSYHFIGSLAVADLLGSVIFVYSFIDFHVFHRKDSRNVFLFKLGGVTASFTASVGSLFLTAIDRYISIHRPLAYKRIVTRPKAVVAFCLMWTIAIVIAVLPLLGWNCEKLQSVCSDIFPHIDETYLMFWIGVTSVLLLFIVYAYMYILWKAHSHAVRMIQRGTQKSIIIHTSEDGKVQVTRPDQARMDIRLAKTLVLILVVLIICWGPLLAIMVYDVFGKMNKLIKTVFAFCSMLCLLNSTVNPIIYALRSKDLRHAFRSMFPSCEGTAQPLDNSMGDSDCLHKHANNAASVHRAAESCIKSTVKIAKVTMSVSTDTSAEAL
# [10] = target: CB2 receptor (Homo sapiens, UniProt P34972); test: G protein nanoBRET assay, antagonist mode, CB2 receptor; conditions: 50 μM after pretreatment with 1 μM CP-55940
# CB2 receptor, sequence (P34972 whole entry): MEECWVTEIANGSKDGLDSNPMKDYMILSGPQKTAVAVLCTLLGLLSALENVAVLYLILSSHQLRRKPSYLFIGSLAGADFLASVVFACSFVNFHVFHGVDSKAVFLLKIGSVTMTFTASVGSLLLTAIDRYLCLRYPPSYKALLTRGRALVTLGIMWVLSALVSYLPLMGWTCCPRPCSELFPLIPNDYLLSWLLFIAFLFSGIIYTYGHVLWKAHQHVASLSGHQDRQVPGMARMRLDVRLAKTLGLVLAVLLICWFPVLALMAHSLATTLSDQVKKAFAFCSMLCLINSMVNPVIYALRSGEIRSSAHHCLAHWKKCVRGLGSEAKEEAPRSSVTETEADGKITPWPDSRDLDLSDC
# [11] = test system: DRG neurons; test: Calcium responses of cultured DRG sensory neurons; assay type: cell-based; conditions: cultured mouse DRG neurons, 50 μM × 15 s
# Experimental: 9 CBN and 11-OH CBN activate DRG neurons with similar response magnitudes but differ in their percentage of neurons activated and time to peak response. Calcium response traces of representative cultured mouse DRG neurons following application of CBN (A) and 11-OH CBN (B) 50 μM × 15 s (arrow). […] Mean value ± SEM (CBN: n = 59; 11-OH CBN: n = 29, two-tailed t test, Prism GraphPad).
# [12] = target: T2, CB1 receptor; test: G protein nanoBRET assay, antagonist mode, CB1 receptor; conditions: 50 μM after pretreatment with 1 μM CP-55940
# [13] = substrate: CCCCCC1=CC(=O)C2=C(OC(C)(C)c3ccc(C)cc32)C1=O; test: not read; conditions: other: CYP2C9, CBN 5–80 μM
# Experimental: (§5) For the experiment, we used an enzyme concentration of 0.5 μM, reconstituted in the lipid system of POPC: POPS (8:2 v/v), and CPR at 0.6 μM dissolved in 0.1 M potassium phosphate buffer for CYP2C9. […] The reaction mixture was incubated at 37 °C for 10 min, and then NADPH was added (1 mM), allowing the reaction to proceed for an additional 30 min. […] We did a total extraction for three cycles. Following the extractions, the extractions were dried under a continuous stream of nitrogen, and the residual products were finally dissolved in 90% ethanol.
# (§6) The LC separation was performed on a Waters Acquity UPLC BEH column (2.1 × 100 mm, 1.7 μM) with mobile phase A (0.1% formic acid in water) and mobile phase B (0.1% formic acid in acetonitrile). The flow rate was 0.5 mL/min unless noted otherwise. The linear gradient was as follows: 0–0.5 min, 70%A; 2 min, 20%A; 4–4.2 min, 0%A; 4.21–5.2 min, 0%A (0.8 mL/min); 5.3–6.9 min, 70%A. The autosampler was set at 10 °C, and the column was kept at 50 °C. The injection volume was 5 μL.
# (§7) All data were analyzed using the software Skyline (daily version 22.2.1.278). It includes raw data import, peak integration, and a linear regression fit with 1/×2 weighting for the calibration curves.
# [14] = substrate: CCCC[C@H](O)c1cc(O)c2c(c1)OC(C)(C)c1ccc(C)cc1-2; test: not read; conditions: other: CYP2C9, CBN 5–80 μM
# Experimental: as §5, §6, §7
molecule,measurement,setting,value
"CC(C)C[C@H]1C(=O)N2CCC[C@H]2[C@]2(O)O[C@](NC(=O)[C@@H]3C=C4c5cccc6[nH]c(Br)c(c56)C[C@H]4N(C)C3)(C(C)C)C(=O)N12 [Bromocriptine, reference compound]",rate of NADPH oxidation in the presence of the compound,[1],60.788±19.569 nmol/min/nmol
"CCCC[C@H](O)c1cc(O)c2c(c1)OC(C)(C)c1ccc(C)cc1-2 [CBN-1′–OH, 3-(1-hydroxypentyl)-6,6,9-trimethyl-6H-benzo[c]chromen-1-ol]",reduction of plasma level between 0.5 and 2 h,[2]; IV administration of CBN,3 fold
same,rate of metabolite formation from CBN,[3],9–9.4 × 10^3 pmol/min/nmol
same,formation of metabolite by CYP2D6,[4],did not detect the formation
same,change in NO levels compared to cells with only LPS treatment,[5],no detectable significant (ns) change
same,IL-6 production,"[6]; LPS-stimulated BV2, concentration not stated",decrease in IL-6 production
same,IL-10 levels,[7],reversed
same,Arginase1 levels,[8],slight increase in Arginase1 levels
same,"agonist effect at CB1 receptor, Gαo activation",[9],partial agonist effect
same,inhibition of CB2 receptor,[10],inverse agonist effect
"CCCCCc1cc(O)c2c(c1)OC(C)(C)c1ccc(CO)cc1-2 [CBN-11-OH, cannabinol-11-hydroxy]",reduction of plasma level between 0.5 and 2 h,[2]; IP administration of CBN,2 fold
same,reduction of plasma level between 0.5 and 2 h,[2]; IV administration of CBN,3 fold
same,CBN-11-OH formation relative to CBN-1′-OH,[2]; IV,~89 times
same,CBN-11-OH formation relative to CBN-quinone,[2]; IV,~55 times
same,CBN-11-OH formation relative to CBN-1′-OH,[2]; i.p.,~82 fold
same,CBN-11-OH formation relative to CBN-quinone,[2]; i.p.,~90 fold
same,rate of metabolite formation from CBN,[3],≤ 3.4 × 10^4 pmol/min/nmol
same,production of NO,"[5]; LPS-stimulated BV2, 5 μM",slightly lower production of NO
same,change in NO levels compared to cells with only LPS treatment,[5],no detectable significant (ns) change
same,IL-6 levels,"[6]; LPS-stimulated BV2, 5 μM",reduction in IL-6 levels
same,IL-10 levels,[7],concentration-dependent increase in IL-10 levels
same,Arginase1 levels,[8],mixed results
same,Ca2+ response (%),[11],31.6 ± 2.8%
same,DRG neuron activation (%),[11],5.4 ± 1.1%
same,Response Time,[11],22.8 ± 2.2 s
same,"[Ca2+]i responses, peak values",[11],31.6 ± 2.8%
same,percentage of DRG neurons activated,[11],5.4 ± 1.1%
same,time to peak response,[11],22.8 ± 2.2 s
same,inhibition of CB1 activation,[12],complete ablation of the BRET signal
same,inhibition of CB2 receptor,[10],complete inhibition
"CCCCCC1=CC(=O)C2=C(OC(C)(C)c3ccc(C)cc32)C1=O [CBN-quinone, 6,6,9-Trimethyl-3-pentyl-1H-benzo[c]chromene-1,4(6H)-dione]",reduction of plasma level between 0.5 and 2 h,[2]; IV administration of CBN,9 fold
same,rate of metabolite formation from CBN,[3],further down by approximately three times the value of CBN-1′–OH
same,Vmax of metabolite formation from CBN,[4]; CBN 5–80 μM,5.6 pmol/min/nmol
same,inhibition of CB2 receptor,[10],partial inhibition
B1,Km,[13],2.5 µM
same,kcat,[13],4.4 pmol/min/nmol
same,Km,[14],2.3 µM
same,kcat,[14],12.1 pmol/min/nmol
